Measurements published in PubChem BioAssay (NCI).
“And” between values parts separate entries of the source, which are not always exact repeats. Equal values may be shown once.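 Grown in 96-well plates, cells were treated for 48 hours with each compound at five concentrations. Insufficient inhibition: endpoint recorded as highest concentration tested. Here, GI50 denotes the concentration required for 50% inhibition of growth. The concentration for full growth arrest is given as TGI.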

Legend:
Assay in all cases: NCI-60 cell line screen, 48 h
SK-OV-3 ovarian = system: SK-OV-3 ovarian
UACC-257 melanoma = system: UACC-257 melanoma
HCC-2998 colon = system: HCC-2998 colon
HS 578T breast = system: HS 578T breast
NCI/ADR-RES ovarian = system: NCI/ADR-RES ovarian
EKVX NSCLC = system: EKVX NSCLC
KM12 colon = system: KM12 colon
CAKI-1 renal = system: CAKI-1 renal
A498 renal = system: A498 renal
TK-10 renal = system: TK-10 renal

Compound | GI50 (SK-OV-3 ovarian) | TGI (SK-OV-3 ovarian) | GI50 (UACC-257 melanoma) | TGI (UACC-257 melanoma) | GI50 (HCC-2998 colon) | TGI (HCC-2998 colon) | GI50 (HS 578T breast) | TGI (HS 578T breast) | GI50 (NCI/ADR-RES ovarian) | TGI (NCI/ADR-RES ovarian) | GI50 (EKVX NSCLC) | TGI (EKVX NSCLC) | GI50 (KM12 colon) | TGI (KM12 colon) | GI50 (CAKI-1 renal) | TGI (CAKI-1 renal) | GI50 (A498 renal) | TGI (A498 renal) | GI50 (TK-10 renal) | TGI (TK-10 renal)
CCc1cccc2c3c(sc12)C(c1ccc(Cl)cc1)C(C#N)=C(N)O3 (configuration not stated) | 1.14 µM | 29.8 µM | 8.64 µM | 33.1 µM | 1.32 µM | 7.42 µM | 0.363 µM | 2.6 µM | 0.349 µM | 2.24 µM | 1.08 µM | 14.7 µM | 0.447 µM | 13.1 µM | 0.403 µM | 14 µM | 0.224 µM | 1.52 µM | 3.18 µM | 15.4 µM
CCc1ccccc1N1CCN(C(=O)c2cc(OC)c(OC)c(OC)c2)CC1 |  | 4.55 µM |  | > 73.2 µM |  | 2.09 µM |  | 0.0608 µM |  | 1.63 µM |  | 20.9 µM |  | 2.64 µM |  | 43 µM |  | 0.985 µM |  | > 93.3 µM
COc1cc(Cn2c(=S)ss/c2=N\C(=S)N(C)C)cc(OC)c1OC |  | > 63.1 µM |  | > 100 µM |  | > 95.4 µM |  | > 100 µM |  | > 100 µM |  | > 100 µM |  | 30.5 µM |  | > 100 µM |  | > 100 µM |  | > 100 µM
C=C1CC2(C[C@@H](c3ccccc3)O[C@@H](c3ccccc3)C2)OC1=O (some centres not stated) |  | 27.8 µM |  | 10.8 µM |  | 14.6 µM |  | 9.44 µM |  | 15.4 µM |  | 25.7 µM |  | 15.5 µM |  | 4.53 µM |  | 23.5 µM |  | 3.89 µM
Cn1ccnc1C(=O)/C=C/c1ccc(CC(=O)Nc2ccc(S(F)(F)(F)(F)F)cc2)cc1 | 3.86 µM | 11.6 µM | 4.35 µM | 10.5 µM | 2.92 µM | 5.3 µM | 4.91 µM | 16.4 µM | 3.53 µM | 9.35 µM | 2.84 µM | 8.23 µM | 2.04 µM | 4.7 µM | 2.66 µM | 5.72 µM | 3.12 µM | 6.14 µM | 4.05 µM | 9.5 µM
COc1ccn2c(C(C)=O)cc(C(=O)c3ccc4c(c3)Sc3ccccc3N4)c2c1 | 0.124 µM | > 23.5 µM | > 30.6 µM | > 100 µM | 0.155 µM | > 47.8 µM | 0.182 µM | > 100 µM | 0.0547 µM |  | 0.183 µM | > 100 µM | 0.0874 µM | > 27.3 µM | 0.0527 µM | > 100 µM | 0.064 µM | 0.251 µM | 0.34 µM | > 100 µM
CS(=O)(=O)c1ccc(-c2cnc(N)c(C(=O)Nc3ccccc3)n2)cc1 | 6.85 µM | > 100 µM | > 100 µM | > 100 µM | 3.9 µM | > 100 µM | > 100 µM | > 100 µM | 22.6 µM | > 100 µM | > 92.3 µM | > 100 µM | > 100 µM | > 100 µM | 4.96 µM | > 55.8 µM | 6.59 µM | > 100 µM | 16.9 µM | > 100 µM
CN(C)c1ccc(-c2cc(-c3ccc(Nc4nc(Nc5ccccc5)nc(Nc5ccc(Cl)cc5)n4)cc3)nc(N)n2)cc1 | 18.8 µM | > 100 µM | 5.81 µM | 37.4 µM | 13.7 µM | 87.9 µM | 2.57 µM | 20.2 µM | 9.23 µM | > 100 µM | 1.82 µM | > 100 µM | 3.06 µM | 13 µM | 1.61 µM | 7.76 µM | 4.63 µM | 20.1 µM | 5.68 µM | 38.7 µM
C/C(=C\c1ccn(-c2ccc(N)c(F)c2)n1)[C@@H]1C[C@@H]2O[C@]2(C)CCC[C@H](C)[C@H](O)[C@@H](C)C(=O)C(C)(C)[C@@H](O)CC(=O)O1 | 0.0262 µM | > 50 µM | 0.0458 µM | > 50 µM | 0.0287 µM | > 50 µM | 0.0108 µM |  | 0.0943 µM | > 50 µM | 0.171 µM | > 50 µM | 0.00857 µM | > 50 µM | 0.0802 µM | > 50 µM | < 0.005 µM | 0.267 µM | 0.064 µM | > 50 µM
C=CCNCCCN1C(=O)c2ccc3c4c(ccc(c24)C1=O)C(=O)N(CCCNCC=C)C3=O | 0.775 µM | 3.61 µM | 0.333 µM | 1.2 µM | 0.428 µM | 1.54 µM | 1.3 µM | 5.16 µM | 1.74 µM | 12.6 µM | 0.295 µM | 1.09 µM | 0.417 µM | 1.62 µM | 0.34 µM | 1.97 µM | 0.394 µM | 1.76 µM | 0.551 µM | 6.14 µM
COc1ccc(C(=O)/C=C/c2c(C(F)(F)F)nc3sccn23)cc1OC | 3.41 µM | > 100 µM | 7.77 µM | > 100 µM | 5.07 µM | 97.5 µM | 2.51 µM | 16.8 µM | 1.88 µM | 10.6 µM | 4.43 µM | > 100 µM | 1.97 µM | 11.1 µM | 2.46 µM | > 100 µM | 7.58 µM | 54.9 µM | 8.76 µM | > 100 µM
O=C1/C(=C/c2ccccc2F)CNC/C1=C\c1ccccc1F | 1.68 µM and 1.58 µM | 4.01 µM and 3.12 µM | 1.62 µM and 1.73 µM | 4.16 µM and 3.95 µM | 1.13 µM and 0.359 µM | 2.38 µM and 1.16 µM | 0.533 µM and 4.11 µM |  | 0.665 µM and 0.699 µM | 6.57 µM and 12.8 µM | 0.775 µM and 1.9 µM | 2.58 µM and 5.26 µM | 0.189 µM and 0.197 µM | 0.519 µM and 0.39 µM | 0.676 µM and 0.611 µM | 3.71 µM and 2.16 µM | 0.194 µM and 1.52 µM | 0.978 µM and 2.98 µM | 2.92 µM and 1.51 µM | 8.48 µM and 3.5 µM
COc1cc(C(O)c2nc3ccccc3s2)cc(OC)c1OC (configuration not stated) | > 100 µM | > 100 µM | 26 µM | > 100 µM | > 100 µM | > 100 µM | 40.5 µM | > 100 µM | 8.96 µM | > 100 µM | 2.83 µM | > 100 µM | 78.3 µM | > 100 µM | 4.89 µM | 93.9 µM | 3.18 µM | > 100 µM | 47.3 µM | > 100 µM
